Experimental data reported in patent US10457707B2, “Substituted urea depsipeptide analogs as activators of the CLPP endopeptidase” (priority 2015, dated 2019).
Values after ≈ are worked out from the molar mass of the structure shown. *1 amine or outer side, *2 acyl side, *3 side chain or, on linkers, in order; H or OH if unused. Where a SMILES comes first, the peptide text is derived from it. Bridges are numbered along the chain shown (N, C = ends). [ ]: non-standard residue; d: D form. The star is where a group is joined. X15 = O=C([C@@H]1C[C@@H](OP(=O)(O)O)CN1[*:1])[*:2]; Phe(3,5-F2) = N[C@@H](Cc1cc(F)cc(F)c1)C(=O)O; Morpholine(3S-CO) = O=C(O)[C@@H]1COCCN1; Pro(4S-Me) = C[C@@H]1CN[C@H](C(=O)O)C1; Pro(4R-Me) = C[C@H]1CN[C@H](C(=O)O)C1; NH(3,4-Me2-phenyl) = Cc1ccc(N*)cc1C; NH(4-Me-phenyl) = Cc1ccc(N*)cc1; aThr = C[C@H](O)[C@H](N)C(=O)O; Pip = O=C(O)[C@@H]1CCCCN1; NMeA = CN[C@@H](C)C(=O)O; CO = O=C([*:1])[*:2]

Legend:
[1] = physchem; settings: 22 °C, aqueous buffer, kinetic from dmso stock
[2] = tested on: Streptococcus pneumoniae, DAW27; test: Minimal inhibitory concentration assay (microbroth dilution); format: cell-based; settings: DAW27, read-out: Minimal Inhibitory Concentrations S. pneumoniae DAW27
How it was run: (§1)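 Antibacterial activity was measured by CLSI-standard microdilution in broth, using overnight aerobic incubation at 37 °C. Growth inhibition was scored visually, and MIC taken as the lowest concentration preventing growth.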

[3] = tested on: Bacillus subtilis, ATCC 23857; test: as above; format: cell-based; settings: Bacillus subtilis, ATCC23857, read-out: Minimal Inhibitory Concentrations B. subtilis ATCC 23857
How it was run: as §1

[4] = tested on: Enterococcus faecalis, ATCC 33186; test: as above; format: cell-based; settings: Enterococcus faecalis, ATCC33186, read-out: Minimal Inhibitory Concentrations E. faecalis ATCC 33186
How it was run: as §1

[5] = tested on: Staphylococcus aureus, ATCC 29213; test: as above; format: cell-based; settings: ATCC29213, read-out: Minimal Inhibitory Concentrations S. aureus ATCC 29213
How it was run: as §1

[6] = tested on: Staphylococcus aureus, NRS70; test: as above; format: cell-based; settings: Staphylococcus aureus, NRS70, read-out: Minimal Inhibitory Concentrations S. aureus NRS70
How it was run: as §1

[7] = tested on: E. coli K12ΔtolC; test: as above; format: cell-based
[8] = tested on: Streptococcus pyogenes, ATCC 700294; test: as above; format: cell-based; settings: Streptococcus pyogenes, ATCC700294, read-out: Minimal Inhibitory Concentrations S. pyogenes ATCC 700294
How it was run: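 CLSI broth microdilution: two-fold serial compound dilutions in appropriate broth, inoculated and incubated aerobically overnight at 37° C. MIC read visually as lowest concentration preventing bacterial growth.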

[9] = tested on: Vero (kidney epithelial cells; ATCC CCL-81); test: Cytotoxicity assay (CellTiter-Glo cell viability, 72 hours); format: cell-based; settings: Vero cells, 72 hours, growth inhibition; read-out: Cytotoxicity IC50
How it was run: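 Vero cells, 5000/well, grown overnight at 37° C, 5% CO2 in DMEM with 10% FBS, then exposed to serial compound dilutions or DMSO for 72 hours. Viability read by CellTiter-Glo luminescence. IC50 from duplicate wells, reported as range over two independent experiments.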

Row | Compound | solubility [1] [µM] | MIC [2] [µM] | MIC [3] [µM] | MIC [4] [µM] | MIC [5] [µM] | MIC [6] [µM] | Minimal Inhibitory Concentrations E. coli K12ΔtolC [7] [µM] | MIC [8] [µM] | IC50 [9] [µM]
1 | Cc1ccc(NC(=O)N[C@@H](Cc2cc(F)cc(F)c2)C(=O)N[C@@H]2C(=O)N3C[C@H](OP(=O)(O)O)C[C@H]3C(=O)N3CCOC[C@H]3C(=O)N[C@@H](C)C(=O)N3C[C@H](C)C[C@H]3C(=O)O[C@H]2C)cc1C [Compound 189, (6aS,8R,12S,13S,15aS,17R,21S,23aS)-12-((S)-3-(3,5-difluorophenyl)-2-(3-(3,4-dimethylphenyl)ureido)propanamido)-13,17,21-trimethyl-6,11,15,20,23-pentaoxooctadecahydro-6H,11H,15H-[1,4]oxazino[3,4-i]dipyrrolo[2,1-c:2′,1′-L][1]oxa[4,7,10,13]tetraazacyclohexadecin-8-yl dihydrogen phosphate] ({NH(3,4-Me2-phenyl)-CO}-[Phe(3,5-F2)][aThr][X15][Morpholine(3S-CO)]A[Pro(4R-Me)]; ester 2-C) | 117 ± 3.2 |  |  |  |  |  |  |  | 
2 | C[C@@H]1C[C@H]2C(=O)OC[C@H](NC(=O)[C@H](Cc3ccccc3)NC(=O)Nc3ccc(Cl)cc3)C(=O)N3CCC[C@H]3C(=O)N3CCCC[C@H]3C(=O)N[C@@H](C)C(=O)N2C1 [Compound 3, (S)-2-(3-(4-chlorophenyl)ureido)-N-((2R,6S,8aS,14aS,20S,23aS)-2,6-dimethyl-5,8,14,19,23-pentaoxooctadecahydro-1H,5H,14H,19H-pyrido[2,1-i]dipyrrolo[2,1-c:2′,1′-l][1]oxa[4,7,10,13]tetraazacyclohexadecin-20-yl)-3-phenylpropanamide] |  | 0.2 (≈ 0.156 µg/mL) | 0.78 (≈ 0.607 µg/mL) | 0.2 (≈ 0.156 µg/mL) | 1.56 (≈ 1.21 µg/mL) | 0.78 (≈ 0.607 µg/mL) | 25 | 0.39 (≈ 0.304 µg/mL) | 63 ± 5.8
3 | Cc1ccc(NC(=O)N[C@@H](Cc2cc(F)cc(F)c2)C(=O)N[C@@H]2C(=O)N3C[C@H](OP(=O)(O)O)C[C@H]3C(=O)N3CCCC[C@H]3C(=O)N[C@@H](C)C(=O)N3C[C@H](C)C[C@H]3C(=O)O[C@H]2C)cc1 [Compound 190, (2R,6S,8aS,14aS,16R,20S,21S,23aS)-20-((S)-3-(3,5-difluorophenyl)-2-(3-(p-tolyl)ureido)propanamido)-2,6,21-trimethyl-5,8,14,19,23-pentaoxooctadecahydro-1H,5H,14H,19H-pyrido[2,1-i]dipyrrolo[2,1-c:2′,1′-l][1]oxa[4,7,10,13]tetraazacyclohexadecin-16-yl dihydrogen phosphate] ({NH(4-Me-phenyl)-CO}-[Phe(3,5-F2)][aThr][X15][Pip]A[Pro(4R-Me)]; ester 2-C) | 113 ± 3.9 |  |  |  |  |  |  |  | 
4 | C[C@@H]1C[C@H]2C(=O)OC[C@H](NC(=O)[C@H](Cc3ccccc3)NC(=O)Nc3ccc(N(C)C)cc3)C(=O)N3CCC[C@H]3C(=O)N3CCCC[C@H]3C(=O)N[C@@H](C)C(=O)N2C1 [Compound 5, (S)—N-((2R,6S,8aS,14aS,20S,23aS)-2,6-dimethyl-5,8,14,19,23-pentaoxooctadecahydro-1H,5H,14H,19H-pyrido[2,1-i]dipyrrolo[2,1-c:2′,1′-l][1]oxa[4,7,10,13]tetraazacyclohexadecin-20-yl)-2-(3-(4-(dimethylamino)phenyl)ureido)-3-phenylpropanamide] |  | 0.39 (≈ 0.307 µg/mL) | 0.78 (≈ 0.614 µg/mL) | 0.78 (≈ 0.614 µg/mL) | 6.25 (≈ 4.92 µg/mL) | 1.56 (≈ 1.23 µg/mL) | 50 | 0.78 (≈ 0.614 µg/mL) | 91.3 ± 12.7
5 | COc1ccc(NC(=O)N[C@@H](Cc2ccccc2)C(=O)N[C@H]2COC(=O)[C@@H]3C[C@@H](C)CN3C(=O)[C@H](C)NC(=O)[C@@H]3CCCCN3C(=O)[C@@H]3CCCN3C2=O)cc1 [Compound 6, (S)—N-((2R,6S,8aS,14aS,20S,23aS)-2,6-dimethyl-5,8,14,19,23-pentaoxooctadecahydro-1H,5H,14H,19H-pyrido[2,1-i]dipyrrolo[2,1-c:2′,1′-l][1]oxa[4,7,10,13]tetraazacyclohexadecin-20-yl)-2-(3-(4-Methoxyphenyl)ureido)-3-phenylpropanamide] |  | 0.2 (≈ 0.155 µg/mL) | 1.56 (≈ 1.21 µg/mL) | 0.78 (≈ 0.604 µg/mL) | 3.13 (≈ 2.42 µg/mL) | 3.13 (≈ 2.42 µg/mL) | 50 | 0.39 (≈ 0.302 µg/mL) | > 100
6 | C[C@@H]1C[C@H]2C(=O)OC[C@H](NC(=O)[C@H](Cc3ccccc3)NC(=O)Nc3ccccc3Cl)C(=O)N3CCC[C@H]3C(=O)N3CCCC[C@H]3C(=O)N[C@@H](C)C(=O)N2C1 [Compound 7, (S)-2-(3-(2-chlorophenyl)ureido)-N-((2R,6S,8aS,14aS,20S,23aS)-2,6-dimethyl-5,8,14,19,23-pentaoxooctadecahydro-1H,5H,14H,19H-pyrido[2,1-i]dipyrrolo[2,1-c:2′,1′-l][1]oxa[4,7,10,13]tetraazacyclohexadecin-20-yl)-3-phenylpropanamide] |  | 0.78 (≈ 0.607 µg/mL) | 6.25 (≈ 4.86 µg/mL) | 3.13 (≈ 2.44 µg/mL) | 12.5 (≈ 9.73 µg/mL) | 12.5 (≈ 9.73 µg/mL) | 200 | 3.13 (≈ 2.44 µg/mL) | > 100
7 | C[C@@H]1C[C@H]2C(=O)OC[C@H](NC(=O)[C@H](Cc3ccccc3)NC(=O)Nc3cccc(Cl)c3)C(=O)N3CCC[C@H]3C(=O)N3CCCC[C@H]3C(=O)N[C@@H](C)C(=O)N2C1 [Compound 9, (S)-2-(3-(3-chlorophenyl)ureido)-N-((2R,6S,8aS,14aS,20S,23aS)-2,6-dimethyl-5,8,14,19,23-pentaoxooctadecahydro-1H,5H,14H,19H-pyrido[2,1-i]dipyrrolo[2,1-c:2′,1′-l][1]oxa[4,7,10,13]tetraazacyclohexadecin-20-yl)-3-phenylpropanamide] |  | 0.78 (≈ 0.607 µg/mL) | 1.56 (≈ 1.21 µg/mL) | 1.56 (≈ 1.21 µg/mL) | 3.13 (≈ 2.44 µg/mL) | 1.56 (≈ 1.21 µg/mL) | 25 | 1.56 (≈ 1.21 µg/mL) | 89 ± 5
8 | C[C@@H]1C[C@H]2C(=O)OC[C@H](NC(=O)[C@H](Cc3ccccc3)NC(=O)Nc3ccccc3)C(=O)N3CCC[C@H]3C(=O)N3CCCC[C@H]3C(=O)N[C@@H](C)C(=O)N2C1 [Compound 1, (S)—N-((2R,6S,8aS,14aS,20S,23aS)-2,6-dimethyl-5,8,14,19,23-pentaoxooctadecahydro-1H,5H,14H,19H-pyrido[2,1-i]dipyrrolo[2,1-c:2′,1′-l][1]oxa[4,7,10,13]tetraazacyclohexadecin-20-yl)-3-phenyl-2-(3-phenylureido)propanamide] |  | 0.78 (≈ 0.58 µg/mL) | 1.56 (≈ 1.16 µg/mL) | 3.13 (≈ 2.33 µg/mL) | 6.25 (≈ 4.65 µg/mL) | 6.25 (≈ 4.65 µg/mL) | 200 | 1.56 (≈ 1.16 µg/mL) | > 100
9 | Cc1ccc(NC(=O)N[C@@H](Cc2cc(F)cc(F)c2)C(=O)N[C@@H]2C(=O)N3C[C@H](OP(=O)(O)O)C[C@H]3C(=O)N(C)[C@@H](C)C(=O)N[C@@H](C)C(=O)N3C[C@@H](C)C[C@H]3C(=O)O[C@H]2C)cc1 [Compound 187, (2S,6S,9S,11aS,13R,17S,18S,20aS)-17-((S)-3-(3,5-difluorophenyl)-2-(3-(p-tolyl)ureido)propanamido)-2,6,9,10,18-pentamethyl-5,8,11,16,20-pentaoxohexadecahydro-1H,5H,16H-dipyrrolo[2,1-c:2′,1′-l][1]oxa[4,7,10,13]tetraazacyclohexadecin-13-yl dihydrogen phosphate] ({NH(4-Me-phenyl)-CO}-[Phe(3,5-F2)][aThr][X15][NMeA]A[Pro(4S-Me)]; ester 2-C) | 118 ± 1.4 |  |  |  |  |  |  |  | 
